{"source": "patent US20220275391A1", "about": "“METHODS OF USING ALS INHIBITOR HERBICIDES FOR CONTROL OF UNWANTED VEGETATION IN ALS INHIBITOR HERBICIDE TOLERANT BETA VULGARIS PLANTS” (priority 2010, published 2022)", "key": {"KLARINA": {"tested_on": "KLARINA", "experiment": "Field trial, phytotoxicity scoring on ALS inhibitor sensitive reference variety KLARINA", "details": "BBCH 14", "text": "(§3) The water quantity applied in the various applications equaled 200 l/ha. At 8, 14, 16, 17, 28, and 31 days (as indicated in the various Tables) after application (DAA) of the respective ALS inhibitor herbicide(s), the damages (phytotoxicity/phyto) on the different sugar beet plants were scored according to the scale from 0% to 100%.\n(§4) In this context, “0%” means “no phytotoxicity/phyto” and “100%” means plants were completely killed."}, "wild type plants": {"tested_on": "wild type plants", "experiment": "Greenhouse herbicide treatment of plants regenerated from wild type cell cultures", "details": "lowest doses tested (range 7-70 g a.i./ha foramsulfuron, 1-10 g a.i./ha iodosulfuron-methyl-sodium, mixtures 7:1)", "procedure": "(§1) During the first 10-15 days after transfer into soil containing substrate the plants were kept in an environment with high air humidity. During and after they were weaned to normal greenhouse air humidity regimes the plants were kept in the greenhouse under artificial light (12 h) at 20+−3° C./15+−2° C. day/night temperatures.\n(§2) The herbicide doses tested were equivalent to 7-70 g a.i./ha for foramsulfuron and 1-10 g a.i./ha for iodosulfuron-methyl-sodium."}, "[1]": {"tested_on": "sugar beet cell cultures (genotype 7T9044)", "experiment": "Selection of sugar beet cell colonies on foramsulfuron medium", "format": "cell-based, Beta vulgaris", "details": "3×10^−6 M of foramsulfuron in medium", "from_the_text": "Sugar beet cell cultures were initiated from seedlings of a diploid sugar beet genotype 7T9044 (as, for example, described by Alexander Dovzhenko, PhD Thesis, Title: “Towards plastid transformation in rapeseed (Brassica napus L.) and sugarbeet (Beta vulgaris L.)”, Ludwig-Maximilians-Universität München, Germany, 2001). Callus obtained therefrom was exposed to 10^−7 M foramsulfuron. Surviving and growing cell colonies were numbered and transferred after 4-6 weeks onto fresh medium containing 3×10^−7 M of the inhibitor. One of these cell colonies was able to grow not only at this concentration of the inhibitor but even in presence of 3×10^−6 M of foramsulfuron [CAS RN 173159-57-4]."}, "[2]": {"tested_on": "regenerated plants from foramsulfuron tolerant cell culture (SB574TL)", "experiment": "Greenhouse herbicide treatment of plants regenerated from the foramsulfuron tolerant cell culture", "procedure": "From this clone (SB574TL), shoots were regenerated in presence of the ALS inhibitor herbicide and then the shoots were transferred to MS medium containing 0.05 mg/l Naphthalene acetic acid (NAA).\nas §1, §2"}, "SB574TL based sugar beet": {"tested_on": "SB574TL based sugar beet", "experiment": "Field trial, phytotoxicity scoring on homozygous SB574TL mutant sugar beet", "format": "in vivo, Beta vulgaris", "details": "BBCH 14", "from_the_text": "Based on SB574TL, F4—F6 seeds conferring the mutant allele of the endogenous ALS gene in the homozygous state were applied for further testing."}, "BERETTA": {"tested_on": "BERETTA", "experiment": "Field trial, phytotoxicity scoring on ALS inhibitor sensitive reference variety BERETTA", "format": "in vivo, Beta vulgaris", "details": "BBCH 14", "text": "as §3, §4"}}}
{"compound": "COC(=O)c1ccccc1S(=O)(=O)NC(=O)Nc1nc(C)nc(OC)n1", "note": "[Metsulfuron-methyl (A1-28), metsulfuron-methyl]", "values": [{"measurement": "% phyto", "setting": "KLARINA; 8 g/ha, 8 days", "value": 88, "unit": "%"}, {"measurement": "% phyto", "setting": "KLARINA; 8 g/ha, 14 days", "value": 98, "unit": "%"}, {"measurement": "% phyto", "setting": "KLARINA; 8 g/ha, 28 days", "value": 99, "unit": "%"}]}
{"compound": "COc1cc(OC)nc(NC(=O)NS(=O)(=O)c2cc(NC=O)ccc2C(=O)N(C)C)n1", "note": "[Foramsulfuron (A1-13), foramsulfuron]", "values": [{"measurement": "effect of herbicide treatment on wild type plants", "setting": "wild type plants", "value": "killed"}, {"measurement": "growth of selected cell colony (clone SB574TL) in presence of the inhibitor", "setting": "[1]", "value": "able to grow"}, {"measurement": "% phyto", "setting": "KLARINA; 25 g/ha, 8 days", "value": 85, "unit": "%"}, {"measurement": "% phyto", "setting": "KLARINA; 25 g/ha, 14 days", "value": 83, "unit": "%"}, {"measurement": "% phyto", "setting": "KLARINA; 25 g/ha, 28 days", "value": 86, "unit": "%"}, {"measurement": "% phyto", "setting": "KLARINA; 50 g/ha, 8 days", "value": 90, "unit": "%"}, {"measurement": "% phyto", "setting": "KLARINA; 50 g/ha, 14 days", "value": 92, "unit": "%"}, {"measurement": "% phyto", "setting": "KLARINA; 50 g/ha, 28 days", "value": 94, "unit": "%"}, {"measurement": "tolerance of regenerated plants to herbicide treatment", "setting": "[2]; in vivo", "value": "tolerated even the highest herbicide doses"}]}
{"compound": "COc1cc(OC)nc(NC(=O)NS(=O)(=O)c2ncccc2C2=NOCCO2)n1.[Na+]", "note": "[(A1-87)]", "values": [{"measurement": "% phyto", "setting": "KLARINA; 15 g/ha, 8 days", "value": 90, "unit": "%"}, {"measurement": "% phyto", "setting": "KLARINA; 15 g/ha, 14 days", "value": 97, "unit": "%"}, {"measurement": "% phyto", "setting": "KLARINA; 15 g/ha, 28 days", "value": 99, "unit": "%"}, {"measurement": "% phyto", "setting": "KLARINA; 30 gai/ha, 8 DAA", "value": 83, "unit": "%"}, {"measurement": "% phyto", "setting": "KLARINA; 30 gai/ha, 17 DAA", "value": 100, "unit": "%"}, {"measurement": "% phyto", "setting": "KLARINA; 30 gai/ha, 31 DAA", "value": 100, "unit": "%"}, {"measurement": "% phyto", "setting": "SB574TL based sugar beet; 15 g/ha, 8 days", "value": 0, "unit": "%"}, {"measurement": "% phyto", "setting": "SB574TL based sugar beet; 15 g/ha, 14 days", "value": 0, "unit": "%"}, {"measurement": "% phyto", "setting": "SB574TL based sugar beet; 15 g/ha, 28 days", "value": 0, "unit": "%"}, {"measurement": "% phyto", "setting": "SB574TL based sugar beet; 30 gai/ha, 8 DAA", "value": 0, "unit": "%"}, {"measurement": "% phyto", "setting": "SB574TL based sugar beet; 30 gai/ha, 17 DAA", "value": 0, "unit": "%"}, {"measurement": "% phyto", "setting": "SB574TL based sugar beet; 30 gai/ha, 31 DAA", "value": 0, "unit": "%"}]}
{"compound": "COc1nc(C)nc(NC(=O)NS(=O)(=O)c2ccccc2I)n1.[Na]", "note": "[(A1-41), 2-iodo-N-[(4-methoxy-6-methyl-1,3,5-triazinyl)carbamoyl]benzene-sulfonamide sodium salt]", "values": [{"measurement": "% phyto", "setting": "KLARINA; 30 g/ha, 8 days", "value": 90, "unit": "%"}, {"measurement": "% phyto", "setting": "KLARINA; 30 g/ha, 14 days", "value": 98, "unit": "%"}, {"measurement": "% phyto", "setting": "KLARINA; 30 g/ha, 28 days", "value": 100, "unit": "%"}, {"measurement": "% phyto", "setting": "SB574TL based sugar beet; 30 g/ha, 8 days", "value": 14, "unit": "%"}, {"measurement": "% phyto", "setting": "SB574TL based sugar beet; 30 g/ha, 14 days", "value": 10, "unit": "%"}, {"measurement": "% phyto", "setting": "SB574TL based sugar beet; 30 g/ha, 28 days", "value": 0, "unit": "%"}]}
{"compound": "COc1cc(OC)nc(Oc2cccc(Oc3nc(OC)cc(OC)n3)c2C(=O)O)n1", "note": "[Bispyribac-sodium (C1-1), bispyribac-sodium]", "values": [{"measurement": "% phyto", "setting": "KLARINA; 50 g/ha, 8 days", "value": 90, "unit": "%"}, {"measurement": "% phyto", "setting": "KLARINA; 50 g/ha, 14 days", "value": 98, "unit": "%"}, {"measurement": "% phyto", "setting": "KLARINA; 50 g/ha, 28 days", "value": 99, "unit": "%"}, {"measurement": "% phyto", "setting": "SB574TL based sugar beet; 50 g/ha, 8 days", "value": 23, "unit": "%"}, {"measurement": "% phyto", "setting": "SB574TL based sugar beet; 50 g/ha, 14 days", "value": 30, "unit": "%"}, {"measurement": "% phyto", "setting": "SB574TL based sugar beet; 50 g/ha, 28 days", "value": 0, "unit": "%"}]}
{"compound": "COC(=O)c1ccc(I)cc1S(=O)(=O)[N-]C(=O)Nc1nc(C)nc(OC)n1.[Na+]", "note": "[Iodosulfuron-methyl-sodium (A1-16), iodosulfuron-methyl-sodium]", "values": [{"measurement": "effect of herbicide treatment on wild type plants", "setting": "wild type plants", "value": "killed"}, {"measurement": "% phyto", "setting": "KLARINA; 7 g/ha, 8 days", "value": 90, "unit": "%"}, {"measurement": "% phyto", "setting": "KLARINA; 7 g/ha, 14 days", "value": 97, "unit": "%"}, {"measurement": "% phyto", "setting": "KLARINA; 7 g/ha, 28 days", "value": 100, "unit": "%"}, {"measurement": "% phyto", "setting": "KLARINA; 15 gai/ha, 8 DAA", "value": 83, "unit": "%"}, {"measurement": "% phyto", "setting": "KLARINA; 15 gai/ha, 17 DAA", "value": 98, "unit": "%"}, {"measurement": "% phyto", "setting": "KLARINA; 15 gai/ha, 31 DAA", "value": 100, "unit": "%"}, {"measurement": "% phyto", "setting": "SB574TL based sugar beet; 7 g/ha, 8 days", "value": 0, "unit": "%"}, {"measurement": "% phyto", "setting": "SB574TL based sugar beet; 7 g/ha, 14 days", "value": 0, "unit": "%"}, {"measurement": "% phyto", "setting": "SB574TL based sugar beet; 7 g/ha, 28 days", "value": 0, "unit": "%"}, {"measurement": "% phyto", "setting": "SB574TL based sugar beet; 15 gai/ha, 8 DAA", "value": 0, "unit": "%"}, {"measurement": "% phyto", "setting": "SB574TL based sugar beet; 15 gai/ha, 17 DAA", "value": 0, "unit": "%"}, {"measurement": "% phyto", "setting": "SB574TL based sugar beet; 15 gai/ha, 31 DAA", "value": 0, "unit": "%"}, {"measurement": "tolerance of regenerated plants to herbicide treatment", "setting": "[2]; highest doses tested (range 7-70 g a.i./ha foramsulfuron, 1-10 g a.i./ha iodosulfuron-methyl-sodium, mixtures in the ratio 7:1), greenhouse", "value": "tolerated even the highest herbicide doses"}]}
{"compound": "COc1cc(OC)nc(NC(=O)NS(=O)(=O)c2ncccc2OCC(F)(F)F)n1", "note": "[Trifloxisulfuron-sodium (A1-32), trifloxysulfuron]", "values": [{"measurement": "% phyto", "setting": "BERETTA; 15 g/ha, 8 days", "value": 80, "unit": "%"}, {"measurement": "% phyto", "setting": "BERETTA; 15 g/ha, 16 days", "value": 98, "unit": "%"}, {"measurement": "% phyto", "setting": "BERETTA; 15 g/ha, 38 days", "value": 100, "unit": "%"}, {"measurement": "% phyto", "setting": "SB574TL based sugar beet; 15 g/ha, 8 days (Table 3)", "value": 0, "unit": "%"}, {"measurement": "% phyto", "setting": "SB574TL based sugar beet; 15 g/ha, 16 days", "value": 0, "unit": "%"}, {"measurement": "% phyto", "setting": "SB574TL based sugar beet; 15 g/ha, 38 days", "value": 0, "unit": "%"}]}
{"compound": "COC(=O)c1sccc1S(=O)(=O)NC(=O)Nc1nc(C)nc(OC)n1", "note": "[Thifensulfuron-methyl (A1-29), thifensulfuron-methyl]", "values": [{"measurement": "% phyto", "setting": "KLARINA; 7.5 g/ha, 8 days", "value": 90, "unit": "%"}, {"measurement": "% phyto", "setting": "KLARINA; 7.5 g/ha, 14 days", "value": 98, "unit": "%"}, {"measurement": "% phyto", "setting": "KLARINA; 7.5 g/ha, 28 days", "value": 100, "unit": "%"}]}
{"compound": "COc1cc(OC)n2nc(S(=O)(=O)Nc3c(Cl)ccc(C)c3Cl)nc2n1", "note": "[Metosulam (A3-5), metosulam]", "values": [{"measurement": "% phyto", "setting": "KLARINA; 30 g/ha, 8 days", "value": 90, "unit": "%"}, {"measurement": "% phyto", "setting": "KLARINA; 30 g/ha, 14 days", "value": 97, "unit": "%"}, {"measurement": "% phyto", "setting": "KLARINA; 30 g/ha, 28 days", "value": 93, "unit": "%"}]}
{"compound": "COc1ncc(F)c2nc(S(=O)(=O)Nc3c(F)cccc3F)nn12", "note": "[Florasulam (A3-3), florasulam]", "values": [{"measurement": "% phyto", "setting": "BERETTA; 10 g/ha, 8 days", "value": 80, "unit": "%"}, {"measurement": "% phyto", "setting": "BERETTA; 10 g/ha, 16 days", "value": 98, "unit": "%"}, {"measurement": "% phyto", "setting": "BERETTA; 10 g/ha, 38 days", "value": 98, "unit": "%"}, {"measurement": "% phyto", "setting": "SB574TL based sugar beet; 10 g/ha, 8 days (Table 3)", "value": 0, "unit": "%"}, {"measurement": "% phyto", "setting": "SB574TL based sugar beet; 10 g/ha, 16 days", "value": 0, "unit": "%"}, {"measurement": "% phyto", "setting": "SB574TL based sugar beet; 10 g/ha, 38 days", "value": 0, "unit": "%"}]}
